Where “and” joins values, the source holds several entries; their conditions need not be identical. Equal entries are not always repeated.
Key:
[1] = Liver function assays in sera of HFD-fed mice; format: in vivo, C57BL/6J mice; conditions: data not shown
Method: (§1) Animal studies were approved by Institutional Animal Care and Use Committee of McGuire Veterans Affairs Medical Center and were conducted in accordance with the Declaration of Helsinki, the Guide for the Care and Use of Laboratory Animals, and all applicable regulations. To examine the effect of 25HCDS on diet-induced lipid accumulation in sera and liver, 8-week-old female C57BL/6J mice (Charles River, Wilmington, Mass.) were fed high fat diet (HFD) (Harlan Teklad, Madison, Wis.) containing 42% kcal from fat, 43% kcal from carbohydrate, 15% kcal from protein and 0.2% cholesterol for 10 weeks. All mice were housed under identical conditions in an aseptic facility and given free access to water and food. At the end of each period, the mice were intraperitoneally injected with vehicle solution (ethanol/PBS; Vehicle), or 25HCDS (25 mg/kg) once every three days for 6 weeks and fasted for overnight; and blood samples were collected. Serum triglyceride, total cholesterol, high density lipoprotein-cholesterol, glucose, alkaline phosphatase (ALK), alanine aminotransferase (ALT), and aspartate aminotransferase (AST) were measured using standard enzymatic techniques in the clinical laboratory at McGuire Veterans Affairs Medical Center. Lipoprotein profiles in sera were analyzed by HPLC as described below.

PPARγ = PPARγ mRNA regulation by 25HC3S (comparison in discussion); conditions: administration of 25HC3S, compared with 25HCDS
THP-1 macrophages = test: mRNA levels in THP-1 macrophages by real-time RT-PCR; format: cell-based, Human
Method: Human THP-1 monocytes and HepG2 cells were purchased from the American Type Culture Collection (ATCC, Manassas, Va.) and maintained according to the supplier's protocols. THP-1 monocytes were differentiated to macrophages by adding 100 nM of phorbol 12-myristate 13-acetate (PMA). When cells reached ˜90% confluence, 25HCDS in ethanol (the final concentration of ethanol in media was 0.1%) was added. The cells were harvested at the indicated times for protein, mRNA, and lipid analysis.
(§2) Total RNA was isolated with SV Total RNA Isolation Kit (Promega, Madison, Wis.), which included DNase treatment. Total RNA, 2 μg, was used for the first-strand cDNA synthesis as recommended by the manufacturer (Invitrogen, Carlsbad, Calif.). Real-time RT-PCR was performed using a suitable dye as indicator on ABI 7500 Fast Real-Time PCR System (Applied Biosystems, Foster City, Calif.). All primer/probe sets for real-time PCR were TaqMan gene expression assays (Applied Biosystems, Foster City, Calif.). Amplifications of β-actin and glyceraldehyde 3-phosphate dehydrogenase (GAPDH) were used as internal controls. Relative messenger RNA (mRNA) expression was quantified with the comparative cycle threshold (Ct) method and was expressed as 2^−ΔΔct. The sequences of suitable primers for amplification are described, for example, in Ren et al., 2007 (1).

[2] = system: Hepatic mRNA Expression involved in inflammatory responses in the Mice Fed a HFD; test: Relative hepatic mRNA expression of inflammatory response genes in HFD-fed mice (real-time RT-PCR); format: in vivo, C57BL/6J mice
Method: as §2, §1

[3] = system: Hepatic mRNA Expression involved in lipid metabolism in the Mice Fed a HFD; test: Relative hepatic mRNA expression of lipid metabolism genes in HFD-fed mice (real-time RT-PCR); format: in vivo, C57BL/6J mice; conditions: 25HCDS 25 mg/kg i.p. once every three days for 6 weeks, HFD vehicle = 1.0, mean ± SD, n = 7
Method: as §2, §1

[4] = Body mass, caloric intake, liver weight and toxicity during long-term treatment of HFD-fed mice; format: in vivo, C57BL/6J mice
Method: as §1
To study the effects of long-term treatment of 25HCDS on lipid homeostasis, 8-week-old C57BL/6J female mice were fed a HFD for 10 weeks, and then divided into two groups. One group was treated with 25HCDS and the other with vehicle by peritoneal injection once every three days for six weeks. During the treatment, the mice were fed a HFD, and body mass and caloric intakes were monitored. […] After 6 weeks of injections, the mice were fasted overnight, and sacrificed.

HFD-fed mice = test: Quantification of hepatic lipids in mouse NAFLD model (HFD-fed mice); format: in vivo, C57BL/6J mice
Method: as §1
Liver tissues were homogenized, and lipids were extracted with a mixture of chloroform and methanol (2:1), and filtered. The extracts, 0.2 ml, were evaporated to dryness and dissolved in 100 μl of isopropanol containing 10% of TRITON™ X-100 (C14H22O(C2H4O)n), a nonionic surfactant) for cholesterol assay (Wako Chemicals USA, Richmond, Va.), the NEFA solution (0.5 g of EDTA-Na2, 2 g of TRITON™ X-100, 0.76 ml of IN NaOH, and 0.5 g of sodium azide/l, pH 6.5) for free fatty acid assay (Wako Chemicals USA, Richmond, Va.), or isopropanol only for triglyceride assay (Fisher Scientific, Pittsburgh, Pa.). All of the assays were performed according to the manufacturer's instructions, respectively. Each lipid concentration was normalized to liver weight.

[5] = concentration dependent and time dependent, FIG. 5A
[6] = 25 mg/kg i.p. once every three days for 6 weeks, versus HFD vehicle
[7] = 25HCDS 25 mg/kg i.p. once every three days for 6 weeks, HFD vehicle = 1.0, mean ± SD, n = 7
[8] = HFD-fed mice during 6 weeks of treatment, versus vehicle, data not shown
[9] = in vivo studies, 25HCDS administration
[10] = HFD-fed mice, 25 mg/kg i.p. once every three days for 6 weeks, versus HFD vehicle, 25 mg/kg

C[C@H](CCCC(C)(C)O)[C@H]1CC[C@H]2[C@@H]3CC=C4C[C@@H](OS(=O)(=O)O)CC[C@]4(C)[C@H]3CC[C@]12C [25HC3S, 5-Cholesten-3β, 25-diol 3-sulfate]
alkaline phosphatase activity in sera [1]: decreasing
PPARγ mRNA (PPARγ): only slightly increases

C[C@H](CCCC(C)(C)OS(=O)(=O)O)[C@H]1CC[C@H]2[C@@H]3CC=C4C[C@@H](OS(=O)(=O)O)CC[C@]4(C)[C@H]3CC[C@]12C [25HCDS, 5-cholesten-3β, 25-diol, disulfate]
PPARγ mRNA levels (THP-1 macrophages; FIG. 5C, 5D): linearly increased
expression of SREBP1/2 (THP-1 macrophages; FIGS. 5A and 5B): decreases
IκBα expression (THP-1 macrophages; at an early stage and at low concentrations): coincidently increased
ACC mRNA levels (THP-1 macrophages; [5]): decreases
FAS mRNA levels (THP-1 macrophages; [5]): decreases
HMG-CoA reductase mRNA levels (THP-1 macrophages; concentration dependent and time dependent, FIG. 5B): decreases
increase of PGC-1α expression in the liver [2, 6]: 2 fold
suppression of IL1β expression in liver [2, 6]: 36%
suppression of TNFα expression in liver [2, 6]: 50%
IL1α relative hepatic mRNA expression [2, 7]: 1.02 ± 0.20
IL1β relative hepatic mRNA expression [2, 7]: 0.64 ± 0.16
IkBα relative hepatic mRNA expression [2, 7]: 1.35 ± 0.27
PGC-1α relative hepatic mRNA expression [2, 7]: 2.11 ± 0.82
PPARα (Peroxisome proliferator-activated receptor gamma) relative hepatic mRNA expression [2, 7]: 1.27 ± 0.52
TNFv (Tumor necrosis factor a) relative hepatic mRNA expression [2, 7]: 0.50 ± 0.21
ACC1 relative hepatic mRNA expression [3]: 0.86 ± 0.18
CD36 relative hepatic mRNA expression [3]: 0.69 ± 0.29
FAS relative hepatic mRNA expression [3]: 0.68 ± 0.17
GPAM relative hepatic mRNA expression [3]: 0.74 ± 0.18
HMGR relative hepatic mRNA expression [3]: 0.84 ± 0.07
LDLR relative hepatic mRNA expression [3]: 0.62 ± 0.08
MTTP relative hepatic mRNA expression [3]: 0.94 ± 0.17
PLTP relative hepatic mRNA expression [3]: 0.68 ± 0.21
SREBP-1c relative hepatic mRNA expression [3]: 0.64 ± 0.14
SREBP-2 relative hepatic mRNA expression [3]: 1.12 ± 0.25
body mass [4, 8]: No significant difference
caloric intakes [4, 8]: No significant difference
liver weights ([4]; after 6 weeks of injections, data not shown): did not show significant differences
toxicity [4, 9]: without exhibiting toxicity
decrease of total cholesterol in liver tissue (HFD-fed mice; HFD-fed mice, 25 mg/kg i.p. once every three days for 6 weeks, versus HFD vehicle): 30%
decrease of free fatty acids in liver tissue (HFD-fed mice; [10]): 20% and 25%
decrease of triglycerides in liver tissue (HFD-fed mice; [10]): 18% and 20%
decrease of hepatic neutral lipids (HFD-fed mice; [9]): 20-35%
